Source: patent US9113629B2, “4-amino-6-(4-substituted-phenyl)-picolinates and 6-amino-2-(4-substituted-phenyl)-pyrimidine-4-carboxylates and their use as herbicides” (DOW AGROSCIENCES LLC, priority 2013, dated 2015)
Read-outs that look alike come from different tables or passages of the source.

Experiments:
Format in all cases: in vivo
[1] = system: HELAN: sunflower (Helianthus annuus); assay: Post-emergent Test I herbicidal activity; settings: post-emergence, 336 h, read-out: Visual Growth Reduction (%) 14 Days After Application, HELAN; for pest or weed control at 4000 g/ha: 4 kg ai/ha
Experimental: (§1) Post-emergent Test I Seeds test species were obtained from commercial suppliers and planted into a 13 cm diameter-round pot containing soil-less media mix (metro-mix 360®, Sun Gro Horticulture). Postemergence treatments were planted 8-12 days prior to application and cultured in a greenhouse equipped with supplemental light sources to provide a 16 h photoperiod at 24-29° C. All pots were surface irrigated.
(§2) A weighted amount, determined by the highest rate to be tested, of each compound was dissolved in 1.3 mL acetone-DMSO (97:3, v/v) and diluted with 4.1 mL water-isopropanol-crop oil concentrate (78:20:2, v/v/v) containing 0.02% Triton X-155 to obtain concentrated stock solutions. Additional application rates were obtained by serial dilution of the high rate solution into a solution containing appropriate volume of 97:3 v/v mixture of acetone and DMSO and appropriate volume of an aqueous mixture of water, isopropyl alcohol, crop oil concentrate (78:20:2, v/v/v) containing 0.02% Triton X-155.
(§3) Formulated compounds were applied using a DeVilbiss® compressed air sprayer at 2-4 psi. Following treatment, pots were returned to the greenhouse for the duration of the experiment. All pots were sub-irrigated as need to provide optimum growing conditions. All pots were fertilized one time per week by subirrigating with Peters Peat-Lite Special® fertilizer (20-10-20).
(§4) […] All evaluations were made visually on a scale of 0 to 100 where 0 represents no activity and 100 represents complete plant death. Visual assessments of plant injury were made based on growth reduction, discoloration, leaf deformity and necrosis.

[2] = system: ECHCG: barnyardgrass (Echinochloa crus-galli); assay: Post-emergent Test I herbicidal activity; settings: post-emergence, 336 h, read-out: Visual Growth Reduction (%) 14 Days After Application, ECHCG; for pest or weed control at 4000 g/ha: 4 kg ai/ha
Experimental: as §1, §2, §3, §4

[3] = system: SETFA: giant foxtail (Setaria faberi); assay: Post-emergent Test I herbicidal activity; settings: post-emergence, 336 h, read-out: Visual Growth Reduction (%) 14 Days After Application, SETFA; for pest or weed control at 4000 g/ha: 4 kg ai/ha
Experimental: as §1, §2, §3, §4

[4] = system: AMARE: redroot pigwseed (Amaranthus retroflexus); assay: Post-emergent Test I herbicidal activity; settings: post-emergence, read-out: Visual Growth Reduction (%), AMARE; for pest or weed control at 4000 g/ha: 4 kg ai/ha
Experimental: as §1, §2, §3, §4

[5] = system: IPOHE: ivyleaf morningglory (Ipomoea hederecea); assay: Post-emergent Test I herbicidal activity; settings: post-emergence, 336 h, read-out: Visual Growth Reduction (%) 14 Days After Application, IPOHE; for pest or weed control at 4000 g/ha: 4 kg ai/ha
Experimental: as §1, §2, §3, §4

[6] = system: PAPRH: common poppy (Papaver rhoeas); assay: Post-emergent Test III, herbicidal activity in wheat and barley; settings: for pest or weed control at 35 g/ha / pest or weed control at 70 g/ha / pest or weed control at 140 g/ha: Papaver rhoeas, post-emergence, 504 h, read-out: Visual Growth Reduction (%) 21 Days After Application PAPRH; for pest or weed control at 35 g/ha: 35 g ai/ha; for pest or weed control at 70 g/ha: 70 g ai/ha; for pest or weed control at 140 g/ha: 140 g ai/ha; for GR50 PAPRH / GR80 PAPRH: probit analysis
Procedure, shortened: (§5)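 GR20, GR50, GR80 and GR90 come from probit analysis of visual injury scores (0 = none, 100 = complete kill) taken 21 d after treatment. Foliar application was by track sprayer delivering 187 L/ha at five rates, from high down to 1/16×, onto greenhouse plants at the 2–3 leaf stage, with solvent-blank controls.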

[7] = system: BROTE: downy brome (Bromus tectorum); assay: as above
Procedure, shortened: as §5

[8] = system: AVEFA: wild oats (Avena fatua); assay: Post-emergent Test I herbicidal activity; settings: post-emergence, 336 h, 3.96 kg ai/ha, read-out: Visual Growth Reduction (%) 14 Days After Application, AVEFA
Experimental: as §1, §2, §3, §4

[9] = Table 8, dose for 50 percent growth reduction, 21 d
[10] = Table 8, dose for 80 percent growth reduction, 21 d

SMILES: COC(=O)c1nc(-c2ccccc2F)c(F)c(N)c1Cl [Compound 206]
- pest or weed control at 4040 g/ha ([1]; 4.04 kg ai/ha): 95 to 100%
- pest or weed control at 4040 g/ha ([2]; 4.04 kg ai/ha): 0 to 29%
- pest or weed control at 4040 g/ha ([3]; 4.04 kg ai/ha): 0 to 29%
- pest or weed control at 4040 g/ha ([4]; 4.04 kg ai/ha): 95 to 100%
- pest or weed control at 4040 g/ha ([5]; 4.04 kg ai/ha): 75 to 84%

SMILES: Nc1c(Cl)c(C(=O)O)nc(-c2ccc(I)c(F)c2)c1Cl [Compound 145, 4-Amino-3,5-dichloro-6-(3-fluoro-4-iodophenyl)picolinic acid]
- pest or weed control at 35 g/ha ([6]; Table 8, post-emergent, 21 d): 95 to 100%
- pest or weed control at 70 g/ha ([6]; Table 8, post-emergent, 21 d): 95 to 100%
- pest or weed control at 140 g/ha ([6]; Table 8, post-emergent, 21 d): 95 to 100%
- GR50 PAPRH [6, 9]: 1 g ai/ha
- GR80 PAPRH [6, 10]: 1 g ai/ha

SMILES: Nc1cc(-c2cc(F)c(Br)cc2F)nc(C(=O)O)c1Cl [Compound 3]
- pest or weed control at 35 g/ha ([6]; Table 8, post-emergent, 21 d): 95 to 100%
- pest or weed control at 70 g/ha ([6]; Table 8, post-emergent, 21 d): 95 to 100%
- GR50 PAPRH [6, 9]: 1 g ai/ha
- GR80 PAPRH [6, 10]: 1 g ai/ha

SMILES: Nc1c(Cl)c(C(=O)O)nc(-c2ccc(Br)c(F)c2)c1Cl [Compound 43, 4-Amino-6-(4-bromo-3-fluorophenyl)-3,5-dichloropicolinic acid]
- pest or weed control at 35 g/ha ([6]; Table 8, post-emergent, 21 d): 95 to 100%
- pest or weed control at 70 g/ha ([6]; Table 8, post-emergent, 21 d): 95 to 100%
- GR50 PAPRH [6, 9]: 1 g ai/ha
- GR80 PAPRH [6, 10]: 1 g ai/ha

SMILES: Nc1c(F)c(-c2ccc(OC(F)F)cc2)nc(C(=O)O)c1Cl [Compound 143]
- pest or weed control at 35 g/ha [6]: 85 to 94%
- pest or weed control at 70 g/ha [6]: 85 to 94%
- pest or weed control at 140 g/ha [6]: 85 to 94%
- GR50 PAPRH ([6]; dose for growth reduction of 50 percent, 21 days after application): 1 g ai/ha
- GR80 PAPRH ([6]; dose for growth reduction of 80 percent, 21 days after application): 8 g ai/ha
- pest or weed control at 35 g/ha ([7]; Bromus tectorum, post-emergence, 504 h, 35 g ai/ha, read-out: Visual Growth Reduction (%) 21 Days After Application BROTE): 0 to 29%
- pest or weed control at 70 g/ha ([7]; Bromus tectorum, post-emergence, 504 h, 70 g ai/ha, read-out: Visual Growth Reduction (%) 21 Days After Application BROTE): 45 to 59%
- pest or weed control at 140 g/ha ([7]; Bromus tectorum, post-emergence, 504 h, 140 g ai/ha, read-out: Visual Growth Reduction (%) 21 Days After Application BROTE): 45 to 59%
- GR50 BROTE ([7]; probit analysis, dose for growth reduction of 50 percent, 21 days after application): 95 g ai/ha
- GR80 BROTE ([7]; probit analysis, dose for growth reduction of 80 percent, 21 days after application): >140 g ai/ha
- pest or weed control at 4000 g/ha [1]: 95 to 100%
- pest or weed control at 4000 g/ha [2]: 95 to 100%
- pest or weed control at 4000 g/ha [3]: 95 to 100%
- pest or weed control at 4000 g/ha [4]: 95 to 100%
- pest or weed control at 4000 g/ha [5]: 45 to 59%

SMILES: C=Cc1c(C(=O)OC)nc(-c2ccc(Cl)c(F)c2)c(F)c1N [Compound 215, methyl 4-amino-6-(4-chloro-3-fluorophenyl)-5-fluoro-3-vinylpicolinate]
- pest or weed control at 3960 g/ha ([1]; 3.96 kg ai/ha): 95 to 100%
- pest or weed control at 3960 g/ha [8]: 30 to 44%
- pest or weed control at 3960 g/ha ([2]; 3.96 kg ai/ha): 85 to 94%
- pest or weed control at 3960 g/ha ([3]; 3.96 kg ai/ha): 0 to 29%
- pest or weed control at 3960 g/ha ([5]; 3.96 kg ai/ha): 95 to 100%

SMILES: COC(=O)c1nc(-c2cccc(F)c2F)c(F)c(N)c1Cl [Compound 199]
- pest or weed control at 4000 g/ha [1]: 95 to 100%
- pest or weed control at 4000 g/ha [2]: 60 to 74%
- pest or weed control at 4000 g/ha [3]: 85 to 94%
- pest or weed control at 4000 g/ha [4]: 95 to 100%
- pest or weed control at 4000 g/ha [5]: 75 to 84%

SMILES: COC(=O)c1nc(-c2ccc(I)c(F)c2)nc(N)c1OC [Compound 27, Methyl 6-amino-2-(3-fluoro-4-iodophenyl)-5-methoxypyrimidine-4-carboxylate]
- pest or weed control at 35 g/ha ([6]; Table 8, post-emergent, 21 d): 95 to 100%
- pest or weed control at 70 g/ha ([6]; Table 8, post-emergent, 21 d): 95 to 100%
- GR50 PAPRH [6, 9]: 1 g ai/ha
- GR80 PAPRH [6, 10]: 1 g ai/ha
